According to publication PMC11474028, “Lipopeptide antibiotics disrupt interactions of undecaprenyl phosphate with UptA” (Proceedings of the National Academy of Sciences of the …, 2024):

Test system: UptA R112E/R118E
Experiment: Native MS of C55-P binding to UptA double mutant R112E/R118E
Design: species or system Bacillus subtilis
Conditions: 5 µM protein, 10 µM C55-P, pH 8.02, 0.05% LDAO, 200 mM ammonium acetate, 100 V; mean of three biological replicates
Description: Conserved arginine residues in the putative membrane reentrant loops of E. coli DedA proteins YqjA (R130) and YghB (R136) are important for the cellular role of these proteins ([36]). […] How these residues impact substrate interactions, however, is not known. Based on the model structure of UptA predicted by AlphaFold, the R112 residue should engage Q64 while R118 is able to form hydrogen bonds with E32, H119, and W146 to potentially stabilize the membrane reentrant loops (Fig. 3A). To test for the impact of these residues on C55-P binding, we generated the E32A, Q64A, R112A, R118A, H119A, and W146A UptA single mutants. After purification of the proteins, using the same protocol as the wild type (WT) (Materials and Methods and SI Appendix, Fig. S5), we equilibrated aliquots of each protein variant (5 µM) with C55-P (10 µM) and recorded spectra using the same instrument settings. […] We additionally generated a double mutant R112E/R118E in which the polarity of both native arginine residues in the wild type are reversed.
Expression and purification of UptA
Plasmids were used to transform chemically competent E. coli C43(DE3) cells (Lucigen) and selected on LB/Agar containing 100 μg/ml ampicillin at 37 °C. Single colonies were used to inoculate 60 mL LB containing 100 μg/ml ampicillin and were grown at 37 °C overnight for 16 h. […]

CC(C)=CCC/C(C)=C/CC/C(C)=C/CC/C(C)=C\CC/C(C)=C\CC/C(C)=C\CC/C(C)=C\CC/C(C)=C\CC/C(C)=C\CC/C(C)=C\CC/C(C)=C\COP(=O)(O)O [C55-P, undecaprenyl phosphate]
reduction in the intensity of C55-P binding compared to wild type, R112E/R118E: 63%
